Measured values reported in US20160137639A1, “TRIAZOLE-ISOXAZOLE COMPOUND AND MEDICAL USE THEREOF” (JAPAN TOBACCO INC., priority 2012, published 2016).
Where two headings read alike, the source gives them in different places.

What was measured:
[1] = biological target: T1, human RORγ (Homo sapiens, UniProt P51449); assay: Luciferase reporter gene assay of inhibitory effect against RORγ transcriptional activity (GAL4-hRORγ plasmid in CHO cells); assay type: cell-based
T1 construct: human, NM_005060.3 and from Ser253 to Lys518; expressed in transfected cells; host or cells: CHO cells (transient co-transfection with pG5-Luc reporter)
T1 sequence (P51449 253-518): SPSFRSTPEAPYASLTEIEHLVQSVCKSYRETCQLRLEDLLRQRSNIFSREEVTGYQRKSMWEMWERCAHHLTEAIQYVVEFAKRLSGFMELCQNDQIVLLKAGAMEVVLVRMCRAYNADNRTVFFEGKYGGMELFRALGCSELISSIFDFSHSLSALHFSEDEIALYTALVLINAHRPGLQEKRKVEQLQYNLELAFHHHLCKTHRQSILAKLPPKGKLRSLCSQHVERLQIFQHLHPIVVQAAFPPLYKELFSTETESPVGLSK

[2] = biological target: T2, mouse RORγ (Mus musculus, UniProt P51450); assay: Luciferase reporter gene assay of inhibitory effect against RORγ transcriptional activity (GAL4-mRORγ plasmid in CHO cells); assay type: cell-based
T2 construct: mouse, NM_011281.2 and from Ile251 to Lys516; expressed in transfected cells; host or cells: CHO cells (transient co-transfection with pG5-Luc reporter)
T2 sequence (P51450 251-516): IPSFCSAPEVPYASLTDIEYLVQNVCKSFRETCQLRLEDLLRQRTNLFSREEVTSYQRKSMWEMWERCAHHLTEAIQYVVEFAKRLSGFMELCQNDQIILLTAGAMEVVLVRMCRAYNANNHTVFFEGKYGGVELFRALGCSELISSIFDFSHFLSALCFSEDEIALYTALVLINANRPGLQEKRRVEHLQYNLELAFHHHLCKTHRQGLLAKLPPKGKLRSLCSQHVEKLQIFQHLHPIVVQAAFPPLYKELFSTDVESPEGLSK
Procedure, shortened: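 CHO cells transiently co-transfected with GAL4-mouse RORγ LBD (Ile251–Lys516) and GAL4-dependent luciferase reporter; eight compound concentrations, 0.1% DMSO, 2 days at 37 °C. Luminescence as %-of-vehicle control; EC50 by curve fit, cytotoxic concentrations excluded.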

Row | SMILES | EC50 ([1]; read-out: LUC EC50 hRORg) [µM] | EC50 ([2]; read-out: LUC EC50 mRORg) [µM] | EC50 ([1]; read-out: LUC EC50 (μM) hRORg) [µM] | EC50 ([2]; read-out: LUC EC50 (μM) mRORg) [µM]
1 | Cc1ccc(NC(=O)CCc2noc([C@H]3C[C@@H](CC(C)(C)C)C3)c2COCC(=O)O)c(Cl)c1 [Example F-704] | > 3 | > 3 |  | 
2 | CC(=O)N1C[C@H](C(=O)Nc2ccc(C)cc2C)[C@@H](c2nnc([C@H]3C[C@@H](CC(C)(C)C)C3)n2C2CC2)C1 [Example F-461] |  |  | < 3 | < 3
3 | Cc1ccc(NC(=O)[C@@H](CCC(=O)O)Cc2noc([C@H]3C[C@@H](CC(C)(C)C)C3)c2C2CC2)c(Cl)c1 [Example F-684, (S)-4-(2-chloro-4-methyl-phenylcarbamoyl)-5-{4-cyclopropyl-5-[3-(2,2-dimethyl-propyl)-cyclobutyl]-isoxazol-3-yl}-pentanoic acid] | < 3 | < 3 |  | 
4 | Cc1ccc(NC(=O)[C@H]2CN(S(=O)(=O)C(F)F)C[C@@H]2c2nnc([C@H]3C[C@@H](CC(C)(C)C)C3)n2C2CC2)c(C)c1 [Example F-550] | < 3 | < 3 |  | 
5 | Cc1c(Cl)cccc1NC(=O)CCc1nnc(CCCC(C)(C)C(=O)N(C)C)n1C1CC1 [Example F-238] |  |  | > 3 | > 3
6 | CC(=O)N1C[C@@H](C(=O)Nc2ccc(C)cc2C)[C@H](c2nnc(-c3cc(CC(C)C)no3)n2C2CC2)C1 [Example F-507] | > 3 | > 3 |  | 
7 | C=CCC(CC(=O)NCc1ccc(C)cc1OC)c1nnc(CCCC(C)C)n1C1CC1 (racemic) [Example F-200] |  |  | < 3 | < 3
8 | Cc1ccc(NC(=O)C[C@H](CN2CC(=O)NC2=O)c2nnc([C@H]3C[C@@H](CC(C)C)C3)n2C2CC2)c(C)c1 [Example F-479] |  |  | < 3 | < 3
9 | CC(=O)N1C[C@H](C(=O)Nc2ccc(C)cc2C)[C@@H](c2nnc(CCC(C)(C)C(C)C)n2C2CC2)C1 (racemic) [Example F-321] |  |  | < 3 | < 3
10 | Cc1c(Cl)cccc1NC(=O)CCc1nnc(CCOC(C)C)n1C1CC1 [Example F-218] |  |  | > 3 | < 3
11 | CCn1c(CCC(=O)Nc2ccc(Cl)cc2Cl)nnc1C1Cc2ccccc2C1 [Example F-31] |  |  | > 3 | > 3
12 | COc1cc(C)ccc1CNC(=O)[C@H]1CN(C(C)=O)C[C@@H]1c1nnc(CCC2CCCCC2)n1C1CC1 (racemic) [Example F-173] |  |  | < 3 | < 3
13 | Cc1ccc(NC(=O)CC(CCN(C)C)c2nnc(CCCC(C)C)n2C2CC2)c(C)c1 (racemic) [Example F-276] |  |  | > 3 | > 3
14 | Cc1ccc(NC(=O)C2CN(CC(=O)O)CC2c2noc([C@H]3C[C@@H](CC(C)(C)C)C3)c2C2CC2)c(Cl)c1 (some centres unmarked) [Example F-687] | < 3 | < 3 |  | 
15 | Cc1cc(F)ccc1NC(=O)[C@@H]1CC(F)(F)C[C@H]1c1nnc(-c2cc(CC(C)C)on2)n1C1CC1 [Example F-593] | > 3 | < 3 |  | 
16 | CC(=O)N1C[C@H](C(=O)Nc2ccc(C)cc2C)[C@@H](c2nnc(-c3ccc(CC(C)C)cc3)n2C2CC2)C1 [Example F-406] |  |  | < 3 | < 3
17 | Cc1c(F)cccc1NC(=O)CCc1nnc(CCC(C)C)n1C1CC1 [Example F-101] |  |  | > 3 | > 3
18 | COC1(CC(C)C)CC(c2nnc([C@H]3CN(C(C)=O)C[C@@H]3C(=O)Nc3ccc(C)cc3C)n2C2CC2)C1 (single isomer, unassigned) [Example F-482] |  |  | < 3 | < 3
19 | CC(=O)OCCC1(c2onc(CCC(=O)Nc3ccc(C)cc3Cl)c2C2CC2)CC(CC(C)(C)C)C1 (mixture of isomers) [Example F-737] | > 3 | > 3 |  | 
20 | CC(=O)N1C[C@H](C(=O)Nc2ccc(C)cc2C)[C@@H](c2nnc([C@H]3C[C@@H](OC(C)C)C3)n2C2CC2)C1 [Example F-336] |  |  | > 3 | > 3
21 | Cc1ccc(NCc2nnc(CCC(=O)Nc3cccc(Cl)c3C)n2C2CC2)c(C)c1 [Example F-206] |  |  | < 3 | < 3
22 | Cc1ccc(NC(=O)CCc2noc([C@H]3C[C@@H](CC(C)C)C3)c2CCC(=O)O)c(C)c1 [Example F-664] | > 3 | > 3 |  | 
23 | O=C(O)CC[C@@H](CC(=O)Nc1ccc(Cl)cc1F)c1noc(-c2cc(C3CCCC3)on2)c1C1CC1 [Example E-59] |  |  | < 3 | < 3
24 | Cc1ccc(NC(=O)CC(CN)c2nnc(CCCC(C)C)n2C2CC2)c(C)c1 (racemic) [Example F-274] |  |  | > 3 | > 3
25 | Cc1c(Cl)cccc1NC(=O)CCc1nnc(CC[C@H]2CC[C@H](C(=O)O)CC2)n1C1CC1 [Example F-243] |  |  | < 3 | > 3

Row | SMILES | EC50 ([1]; read-out: LUC EC50 hRORg) [µM] | EC50 ([2]; read-out: LUC EC50 mRORg) [µM] | EC50 ([1]; read-out: LUC EC50 (μM) hRORg) [µM] | EC50 ([2]; read-out: LUC EC50 (μM) mRORg) [µM]
26 | Cc1ccc(NC(=O)C[C@H](CC(F)(F)F)c2nnc(-c3cc(CC(C)C)on3)n2C2CC2)c(C)c1 [Example F-567] | < 3 | < 3 |  | 
27 | Cc1c(Cl)cccc1NC(=O)CCc1nnc(C2CCCC(C)C2)n1C1CC1 (centres unmarked) [Example F-135] |  |  | > 3 | < 3
28 | Cc1ccc(NC(=O)C[C@H](CCC(=O)O)c2noc3c2C(C)CCC3CCC(C)C)c(Cl)c1 (single isomer, unassigned) [Example F-695] | > 3 | < 3 |  | 
29 | Cc1ccc(NC(=O)C[C@H](CC(O)C(F)(F)F)c2nnc([C@H]3C[C@@H](CC(C)C)C3)n2C2CC2)c(C)c1 (single isomer, unassigned) [Example F-621] | < 3 | < 3 |  | 
30 | CCn1c(CCC(=O)Nc2cccc(Cl)c2C)nnc1CCC1CCCCC1 [Example F-39] |  |  | < 3 | < 3
31 | Cc1ccc(NC(=O)C[C@H](CC(=O)O)c2noc(-c3cc(C(F)(F)C(C)(C)C)on3)c2C2CC2)c(Cl)c1 [Example E-53, Sodium (R)-4-(2-chloro-4-methyl-phenylcarbamoyl)-3-[4′-cyclopropyl-5-(1,1-difluoro-2,2-dimethylpropyl)-[3,5′]biisoxazolyl-3′-yl]-butyrate] |  |  | < 3 | < 3
32 | Cc1ccc(NC(=O)C[C@H](CCC(=O)O)c2noc(-c3cc(CCC(C)(C)C)on3)c2C2CC2)c(C)c1 [Example E-32] |  |  | < 3 | < 3
33 | CC(=O)N1C[C@H](C(=O)Nc2ccc(C)cc2C)[C@@H](c2nnc(-c3cc(CC(C)(C)C)on3)n2C2CC2)C1 [Example F-631] | < 3 | < 3 |  | 
34 | Cc1ccc(NC(=O)C[C@H](CCC(=O)O)c2noc([C@H]3C[C@@H](CCc4ccccc4)C3)c2C2CC2)c(Cl)c1 [Example F-700] | < 3 | < 3 |  | 
35 | Cc1c(Cl)cccc1NC(=O)CCc1nnc(CCC2CCCN(C)C2)n1C1CC1 (racemic) [Example F-203] |  |  | > 3 | > 3
36 | Cc1cccnc1NC(=O)CCc1nnc(CCC(C)C)n1C1CC1 [Example F-80] |  |  | > 3 | > 3
37 | Cc1cc(F)ccc1NC(=O)C[C@H](CC(C)C)c1nnc(-c2cc(CC(C)C)on2)n1C1CC1 [Example F-607] | < 3 | < 3 |  | 
38 | Cc1cccc(CCNC(=O)CCc2nnc(CCC(C)C)n2C2CC2)c1 [Example F-68] |  |  | > 3 | > 3
39 | COc1cc(C)ccc1CNC(=O)CCc1nnc(CC[C@H]2CC[C@H](C)CC2)n1C1CC1 [Example F-241] |  |  | < 3 | < 3
40 | CC(C)CCc1nnc(CCC(=O)NCc2ccccc2C(F)(F)F)n1C1CC1 [Example F-130] |  |  | > 3 | > 3
41 | Cc1ccc(NC(=O)CCc2nnc(-c3ccc(C(C)C)cc3)n2C2CC2)c(C)c1 [Example F-320] |  |  | < 3 | < 3
42 | CCn1c(CCC(=O)Nc2ccc(C)cc2C)nnc1CCC1CCCC1 [Example F-48] |  |  | > 3 | < 3
43 | Cc1c(Cl)cccc1NC(=O)CCc1nnc(CCC(C)C)n1C1CC1 [Example F-55] |  |  | > 3 | < 3
44 | CC(=O)N1C[C@H](C(=O)Nc2ccc(C)cc2C)[C@@H](c2nnc(-c3cnn(C(C)C)c3)n2C2CC2)C1 (racemic) [Example F-368] |  |  | > 3 | > 3
45 | Cc1noc(NC(=O)CCc2nnc(CCC(C)C)n2C2CC2)c1C [Example F-106] |  |  | > 3 | > 3
46 | Cc1ccc(NC(=O)C[C@H](CCCO)c2noc([C@H]3C[C@@H](CC(C)(C)C)C3)c2C2CC2)c(C)c1O [Example F-699] | < 3 | < 3 |  | 
47 | Cc1ccccc1CCNC(=O)CCc1nnc(CCC(C)C)n1C1CC1 [Example F-116] |  |  | > 3 | > 3
48 | CCn1c(CCC(=O)Nc2cccc3ccccc23)nnc1C1CCCCC1 [Example F-20] |  |  | > 3 | > 3
49 | CC(=O)N1C[C@H](C(=O)Nc2ccc(C)cc2C)[C@@H](c2nnc(CCC3CCCCC3)n2C2CC2)C1 [Example F-402] |  |  | < 3 | < 3
